Results taken from ChEMBL document CHEMBL5532637, “Antimicrobial activity of natural and semi-synthetic carbazole alkaloids” (Eur J Med Chem, 2023).
Converted amounts (≈) assume the structure as drawn.

Assays:
Staphylococcus aureus [1] = test: Antibacterial activity against Staphylococcus aureus assessed as inhibition of bacterial growth by broth dilution method; format: functional
Escherichia coli [2] = test: Antibacterial activity against Escherichia coli TISTR 780 assessed as inhibition of bacterial growth by two-fold serial dilution method; format: functional
Staphylococcus aureus [3] = test: Antibacterial activity against methicillin-resistant Staphylococcus aureus SK1 assessed as inhibition of bacterial growth by two-fold serial dilution method; format: functional
Staphylococcus aureus [4] = test: Antibacterial activity against Staphylococcus aureus TISTR 1466 assessed as inhibition of bacterial growth by two-fold serial dilution method; format: functional
Salmonella typhimurium = test: Antibacterial activity against Salmonella typhimurium TISTR 292 assessed as inhibition of bacterial growth by two-fold serial dilution method; format: functional, Salmonella enterica subsp. enterica serovar Typhimurium; conditions: Salmonella enterica
Proteus vulgaris = test: Antibacterial activity against Proteus vulgaris assessed as zone of inhibition at 25 ug/ml; format: functional; conditions: read-out: IZ
[5] = system: Staphylococcus epidermidis; test: Antibacterial activity against Staphylococcus epidermidis assessed as zone of inhibition at 25 ug/ml; format: functional; conditions: read-out: IZ
Escherichia coli [6] = test: Antibacterial activity against Escherichia coli assessed as zone of inhibition at 25 ug/ml; format: functional; conditions: read-out: IZ
Escherichia coli [7] = test: Antibacterial activity against Escherichia coli assessed as inhibition of bacterial growth by agar well dilution assay; format: functional
Staphylococcus aureus [8] = test: Antibacterial activity against Staphylococcus aureus assessed as inhibition of bacterial growth by agar well dilution assay; format: functional
Bacillus subtilis [9] = test: Antibacterial activity against Bacillus subtilis assessed as inhibition of bacterial growth by agar well dilution assay; format: functional
Pasteurella multocida = test: Antibacterial activity against Pasteurella multocida assessed as inhibition of bacterial growth by agar well dilution assay; format: functional
Pseudomonas aeruginosa [10] = test: Antibacterial activity against Pseudomonas aeruginosa assessed as zone of inhibition incubated for 24 hrs by disk diffusion method; format: functional
Staphylococcus aureus [11] = test: Antibacterial activity against Staphylococcus aureus assessed as inhibition of bacterial growth by broth microdilution method; format: functional
Escherichia coli [12] = test: Antibacterial activity against Escherichia coli assessed as inhibition of bacterial growth by broth microdilution method; format: functional
Pseudomonas aeruginosa [13] = test: Antibacterial activity against Pseudomonas aeruginosa assessed as inhibition of bacterial growth by broth microdilution method; format: functional
Klebsiella pneumoniae [14] = test: Antibacterial activity against Klebsiella pneumoniae assessed as inhibition of bacterial growth by broth microdilution method; format: functional
Candida albicans = test: Antimicrobial activity against Candida albicans NRRL Y-477 assessed as inhibition of microbial growth incubated for 48 hrs by two-fold serial dilution assay; format: functional
Pseudomonas aeruginosa [15] = test: Antimicrobial activity against Pseudomonas aeruginosa ATCC 27953 assessed as inhibition of microbial growth incubated for 24 hrs by two-fold serial dilution assay; format: functional
Priestia megaterium = test: Antimicrobial activity against Bacillus megaterium ATCC 9885 assessed as inhibition of microbial growth incubated for 24 hrs by two-fold serial dilution assay; format: functional
Escherichia coli [16] = test: Antimicrobial activity against Escherichia coli ATCC 25922 assessed as inhibition of microbial growth incubated for 24 hrs by two-fold serial dilution assay; format: functional
Staphylococcus aureus [17] = test: Antimicrobial activity against Staphylococcus aureus ATCC 29213 assessed as inhibition of microbial growth incubated for 24 hrs by two-fold serial dilution assay; format: functional
Bacillus subtilis [18] = test: Antimicrobial activity against Bacillus subtilis ATCC 6633 assessed as inhibition of microbial growth incubated for 24 hrs by two-fold serial dilution assay; format: functional
Klebsiella pneumoniae [19] = test: Antimicrobial activity against Klebsiella pneumoniae ATCC 13883 assessed as inhibition of microbial growth incubated for 24 hrs by two-fold serial dilution assay; format: functional
Micrococcus luteus = test: Antimicrobial activity against Sarcina lutea assessed as inhibition of microbial growth incubated for 24 hrs by two-fold serial dilution assay; format: functional
Cryptococcus neoformans = test: Antifungal activity against Cryptococcus neoformans […] assessed as inhibition of fungal growth incubated for 24 to 48 hrs by CLSI protocol based broth microdilution method; format: functional; conditions: time 24-48 hrs
[20] = system: Cryptococcus deuterogattii; test: Antifungal activity against Cryptococcus gattii VGII WM178/08 assessed as inhibition of fungal growth incubated for 24 to 48 hrs by CLSI protocol based broth microdilution method; format: functional, Cryptococcus bacillisporus; conditions: time 24-48 hrs
Bacillus subtilis [21] = test: Antibacterial activity against Bacillus subtilis assessed as zone of inhibition by agar-disc diffusion method; format: functional
Staphylococcus aureus [22] = test: Antibacterial activity against Staphylococcus aureus assessed as zone of inhibition by agar-disc diffusion method; format: functional
Staphylococcus aureus [23] = test: Antimicrobial activity against methicillin-resistant Staphylococcus aureus assessed as inhibition of microbial growth incubated for 18 hrs by agar diffusion method; format: functional
Pythium = test: Antifungal activity against Pythium assessed as zone of inhibition incubated upto 9 days by disc diffusion assay; format: functional; conditions: time <= 9 day
Vibrio cholerae = test: Antibacterial activity against Vibrio cholerae assessed as inhibition of bacterial growth incubated for 24 hrs by broth microdilution method; format: functional
Staphylococcus aureus [24] = test: Antibacterial activity against Staphylococcus aureus assessed as inhibition of bacterial growth incubated for 24 hrs by broth microdilution method; format: functional
Shigella flexneri = test: Antibacterial activity against Shigella flexneri assessed as inhibition of bacterial growth incubated for 24 hrs by broth microdilution method; format: functional
Staphylococcus aureus [25] = test: Antibacterial activity against Staphylococcus aureus assessed as inhibition of bacterial growth; format: functional, organism-based

## COc1cc2c3c([nH]c2cc1C)C(=O)C=C(C)C3=O
Staphylococcus aureus [1]
  MIC: 50 µg/mL (≈ 196 µM)

## COC(=O)c1cc(O)c2[nH]c3ccc(O)c(CC=C(C)C)c3c2c1
Escherichia coli [2]
  MIC: 64 µg/mL (≈ 197 µM)
Staphylococcus aureus [3]
  MIC: 64 µg/mL (≈ 197 µM)
Staphylococcus aureus [4]
  MIC: 64 µg/mL (≈ 197 µM)
Salmonella typhimurium
  MIC: 64 µg/mL (≈ 197 µM)

## CC1(C)C=Cc2c(ccc3[nH]c4ccc(C=O)cc4c23)O1
Escherichia coli [2]
  MIC: 64 µg/mL (≈ 231 µM)
Staphylococcus aureus [3]
  MIC: 64 µg/mL (≈ 231 µM)
Staphylococcus aureus [4]
  MIC: 64 µg/mL (≈ 231 µM)
Salmonella typhimurium
  MIC: 64 µg/mL (≈ 231 µM)

## Cc1cccc2c3c([nH]c12)C(=O)/C(=C/c1ccc(Br)cc1)CC3
Proteus vulgaris
  zone of inhibition at 25 µg/mL: 15 mm
[5]
  zone of inhibition at 25 µg/mL: 15 mm
Escherichia coli [6]
  zone of inhibition at 25 µg/mL: 15 mm

## C/C(=N/C(=S)C(=S)n1cc(CC(=O)O)c2ccccc21)C1CCCc2c1[nH]c1c([N+](=O)[O-])cc([N+](=O)[O-])cc21 (stereo not drawn)
Escherichia coli [7]
  MIC: 0.056 µg/mL (≈ 0.0994 µM)
Staphylococcus aureus [8]
  MIC: 0.056 µg/mL (≈ 0.0994 µM)
Bacillus subtilis [9]
  MIC: 0.056 µg/mL (≈ 0.0994 µM)
Pasteurella multocida
  MIC: 0.056 µg/mL (≈ 0.0994 µM)

## C=CC(=C)c1c(C(=O)OC)cc(O)c2[nH]c3ccccc3c12
Staphylococcus aureus [3]
  MIC: 4 µg/mL (≈ 13.6 µM)
Staphylococcus aureus [4]
  MIC: 4 µg/mL (≈ 13.6 µM)

## CCOc1nc2c(c(-c3ccc(F)cc3)c1C(N)=O)CCc1c-2[nH]c2ccccc12
Pseudomonas aeruginosa [10]
  inhibition zone (IZ): 2.1 cm

## Cc1cc2c([nH]c3ccc(O)cc32)c2c1OC(C)(C)C=C2
Staphylococcus aureus [11]
  MIC90: 3.12 µg/mL (≈ 11.2 µM)
Escherichia coli [12]
  MIC90: > 100 µg/mL
Pseudomonas aeruginosa [13]
  MIC90: > 100 µg/mL
Klebsiella pneumoniae [14]
  MIC90: 3.12 µg/mL (≈ 11.2 µM)

## C/C(=N\C(Cc1c[nH]cn1)C(=O)Oc1cc(C(=O)O)cc(O)c1O)C1CCCc2c1[nH]c1c([N+](=O)[O-])cc([N+](=O)[O-])cc21 (stereo not drawn)
Escherichia coli [7]
  MIC: 0.056 µg/mL (≈ 0.0945 µM)
Staphylococcus aureus [8]
  MIC: 0.056 µg/mL (≈ 0.0945 µM)
Bacillus subtilis [9]
  MIC: 0.056 µg/mL (≈ 0.0945 µM)
Pasteurella multocida
  MIC: 0.056 µg/mL (≈ 0.0945 µM)

## CSC(=S)NNC(=O)c1ccc(-n2c3c(c4ccccc42)CCCC3)cc1
Candida albicans
  MIC: 25 µg/mL
Pseudomonas aeruginosa [15]
  MIC: 25 µg/mL
Priestia megaterium
  MIC: 25 µg/mL
Escherichia coli [16]
  MIC: 25 µg/mL
Staphylococcus aureus [17]
  MIC: 25 µg/mL
Bacillus subtilis [18]
  MIC: 25 µg/mL
Klebsiella pneumoniae [19]
  MIC: 25 µg/mL
Micrococcus luteus
  MIC: 25 µg/mL

## c1ccc2c(c1)[nH]c1ccccc12 [CARBAZOLE]
Cryptococcus neoformans
  MIC: 160 µg/mL (≈ 957 µM)
[20]
  MIC: 160 µg/mL (≈ 957 µM)

## O=C(O)c1cn(C2CC2)c2cc(N3CCNCC3)c(F)cc2c1=O [CIPROFLOXACIN]
Bacillus subtilis [21]
  inhibition zone (IZ): 15 mm
Staphylococcus aureus [22]
  inhibition zone (IZ): 15 mm

## C=C(C)C1Cc2c(cc(O)c3[nH]c4ccccc4c23)C(=O)O1 (stereo not drawn) [CLAUSAMINE A]
Staphylococcus aureus [3]
  MIC: 8 µg/mL (≈ 27.3 µM)
Staphylococcus aureus [23]
  MIC: 64 µg/mL

## C=C(C)C1Cc2c(cc(OC)c3[nH]c4ccccc4c23)C(=O)O1 (stereo not drawn) [CLAUSAMINE B]
Staphylococcus aureus [3]
  MIC: 0.25 µg/mL (≈ 0.813 µM)

## COc1ccc2c(c1)[nH]c1cc(OC)c(C(=O)O)cc12 [CLAUSINE K]
Pythium
  inhibition zone (IZ): 16.2 mm

## COC(=O)c1cc2c(cc1OC)[nH]c1ccccc12 [CLAUSINE L]
Pythium
  inhibition zone (IZ): 10.2 mm

## COc1cc(C=O)c(CC=C(C)C)c2c1[nH]c1ccccc12 [EKEBERGININE]
Vibrio cholerae
  MIC: 32 µg/mL (≈ 109 µM)
Staphylococcus aureus [24]
  MIC: 32 µg/mL (≈ 109 µM)
Shigella flexneri
  MIC: 32 µg/mL (≈ 109 µM)

## CC(C)=CCc1c(O)c(C=O)cc2c1[nH]c1ccccc12 [HEPTAPHYLLINE]
Bacillus subtilis [21]
  inhibition zone (IZ): 12 mm
Staphylococcus aureus [22]
  inhibition zone (IZ): 14 mm

## NC[C@H]1O[C@H](O[C@H]2[C@H](O)[C@@H](O[C@H]3O[C@H](CO)[C@@H](O)[C@H](N)[C@H]3O)[C@H](N)C[C@@H]2N)[C@H](O)[C@@H](O)[C@@H]1O [KANAMYCIN]
Staphylococcus aureus [11]
  MIC90: 12.5 µg/mL (≈ 25.8 µM)
Klebsiella pneumoniae [14]
  MIC90: 12.5 µg/mL (≈ 25.8 µM)

## COc1ccc2[nH]c3c4c(c(C)cc3c2c1)OC(C)(C)C=C4 [KOENIMBINE]
Staphylococcus aureus [25]
  IC50: 17 µM

## CC1=CC(=O)c2[nH]c3ccccc3c2C1=O [MURRAYAQUINONE A]
Staphylococcus aureus [1]
  MIC: 50 µg/mL (≈ 237 µM)
